Assay results reported in patent US20240366756A1, “COMBINATIONS AND USES THEREOF” (Incyte Corporation, priority 2011, published 2024).

System: MEC-1 cells
Assay: Cytotoxicity/ADCC cell killing of MEC-1 cells with PBMCs (FACS, propidium iodide)
Assay type: cell-based, human
Settings: for normalized specific killing: combination set to 1, Bendamustine 100 μg/ml, MOR00208 6.6 pM; for % dead cells: MOR00208 6.6 pm, BEN 100 μg/ml (48 h pre-incubation), E:T 30:1, 4 h, control RefMab33
Excerpt: MEC-1 cells: chronic B-cell leukemia cell line DSMZ #ACC497; Cell Medium: Iscove's Modified Dulbecco's Medium (IMDM) with GlutaMAX™, Invitrogen, Cat No.: 31980-048, 20% FCS; PBMCs: RPMI1640, with stabile Glutamine, PAN Biotech GmbH, Cat No.: P04-13500 supplemented with 10% FCS; Biocoll: Biochrome AG CAT No.: L6115 LOT No.: 1050T; Bendamustine: Mundipharma LOT No.: 88018; FCS: PAN CAT No.: 3302-P282403 LOT No.: P282403; and RefmAb33 (anti-RSV) with same Fc region as MOR00208.
The cytotoxicity of MOR00208 and bendamustine alone and in combination was tested in MEC-1 cells. BEN is an alkylating agent, therefore, functions via direct cytoxicity in MEC-1 cells. MOR00208 targets CD19 and additionally functions via ADCC in killing MEC-1 cells. For the following groups MEC-1 cell killing was measured: BEN at 100 μg/ml; MOR00208 at 6.6 pm and the combination of MOR00208 at 6.6 pm and BEN at 100 μg/ml. […] The following were used as controls: RefmAb33, or PBMCs alone. In both the BEN group and MOR00208+BEN combination group, MEC-1 cells were pre-incubated with BEN 48 hours prior to the ADCC assay measurements. The MEC-1 cells were stained using 1 mg/ml Calcein AM then counted and adjusted to 2×10^5/ml. The PBMCs were counted and adjusted to 6×10^6/ml. The cell killing assays were done as follows: using 96 well plates, a 100 μl cell suspension of MEC-1 cells was added per well, then 100 μl cell suspension of PBMCs was added to each well resulting in an E:T ratio of 30:1. The antibodies were diluted to 1 μg/ml in medium. Cells were centrifuged and re-suspended. To the target:effector cell-pellet, 100 μl antibody solution or according control solution was added. The mixture was incubated for 4 h in CO2-incubator at 37° C. The cell killing measurements were taken as follows: the incubated cell solution (˜100 μl) was transferred into FACS tubes and 200 μl FACS buffer (DPBS+3% FCS) and 0.5 μl PI stock solution was added to each tube. FACS-Calibur was used. Dead MEC-1 cells were stained with propidium iodide.
The values represent % dead cells. Each experiment represents PBMCs from different donors. The controls used for each experiment was RefMab33.
The values shown in Table 2 are calculated as follows: 1) from the raw data (% dead cells) shown in Table 1, the background (controls) were subtracted, resulting in the specific killing for each treatment group; then 2) the specific killing values were normalized by setting the combination of MOR00208+BEN to 1. The averages of Table 2 are depicted in FIG. 5.
[…] (CI) calculations were completed in order to determine synergy of the combination of the exemplified anti-CD19 antibody and bendamustine as compared to MOR00208 and BEN alone. Such calculations are described in Ting-Chao Chou, Theoretical Basis, Experimental Design, and Computerized Simulation of Synergism and Antagonism in Drug Combination Studies, Pharmacol Rev 58:621-681 (2006), which is incorporated by reference in its entirety and Chou T C, Talalay P, Quantitative analysis of dose-effect relationships: the combined effects of multiple drugs or enzyme inhibitors. Adv Enzyme Regul 22:27-55 (1984), which is incorporated by reference in its entirety. The methods of Chou-Talalay are carried out using the CI-isobol method.
The median-effect equation models of the effect of an inhibitor (such as a drug) as Fa/Fu=(D/D50)^m, where D is the dose, Fa and Fu is the fraction of the system affected and unaffected by the dose D (Fa+Fu=1); D50 is the dose producing the median effect (e.g. IC50, ED50, LD50). The constant m determines the shape of the dose-effect curve. We used Excel Fit software to carry out a linear regression calculation to estimate the parameters m and D50.
The effects of the combination on MEC-1 cells is measured % cell death as described above.

Molecule: MOR00208: anti-CD19 antibody; variable domains shown in FIG. 3, heavy and light chain Fc regions in FIG. 4
- normalized specific killing (Average of experiments 1-3): 0.6
- % dead cells (Experiment 1 (PBMC donor)): 73.6%
- normalized specific killing (Experiment 1, background subtracted): 0.70
- % dead cells (Experiment 2 (PBMC donor)): 41.5%
- normalized specific killing (Experiment 2, background subtracted): 0.50
- % dead cells (Experiment 3 (PBMC donor)): 57.2%
- normalized specific killing (Experiment 3, background subtracted): 0.50
- EC50 (concentration chosen as near or at the EC50, read-out: EC50 (MEC-1 cell killing)): ~6.6 pM
- Bonferroni's Multiple Comparison Test Mean Diff. (normalized specific killing, monotherapy vs. BEN + MOR00208 combination): −0.4321

B1: RefmAb33: antibody specific for RSV, used as isotype control, shares the same Fc region as MOR00208 (SEQ ID NO: 8, 9) (antibody)
heavy: QVTLRESGPALVKPTQTLTLTCTFSGFSLSTAGMSVGWIRQPPGKALEWLADIWWDDKKHYNPSLKDRLTISKDTSKNQVVLKVTNMDPADTATYYCARDMIFNFYFDVWGQGTTVTVSSASTKGPSVFPLAPSSKSTSGGTAALGCLVKDYFPEPVTVSWNSGALTSGVHTFPAVLQSSGLYSLSSVVTVPSSSLGTQTYICNVNHKPSNTKVDKKVEPKSCDKTHTCPPCPAPELLGGPDVFLFPPKPKDTLMISRTPEVTCVVVDVSHEDPEVQFNWYVDGVEVHNAKTKPREEQFNSTFRVVSVLTVVHQDWLNGKEYKCKVSNKALPAPEEKTISKTKGQPREPQVYTLPPSREEMTKNQVSLTCLVKGFYPSDIAVEWESNGQPENNYKTTPPMLDSDGSFFLYSKLTVDKSRWQQGNVFSCSVMHEALHNHYTQKSLSLSPGK
light: DIQMTQSPSTLSASVGDRVTITCSASSRVGYMHWYQQKPGKAPKLLIYDTSKLASGVPSRFSGSGSGTEFTLTISSLQPDDFATYYCFQGSGYPFTFGGGTKVEIKRTVAAPSVFIFPPSDEQLKSGTASVVCLLNNFYPREAKVQWKVDNALQSGNSQESVTEQDSKDSTYSLSSTLTLSKADYEKHKVYACEVTHQGLSSPVTKSFNRGEC
modifications: Heavy chain RefMab33; Light chain RefMab33
- % dead cells (Experiment 1 (PBMC donor)): 25.2%
- % dead cells (Experiment 2 (PBMC donor)): 18%
- % dead cells (Experiment 3 (PBMC donor)): 30.9%
